“And” between values parts separate entries of the source, which are not always exact repeats. Equal entries are not always repeated.
What follows are compounds tested against Nonstructural protein 3 (Zika virus, UniProt A0A024AXB9) (assay: Functional biochemical assay to identify treatments for viral infectious disease that targets Zika NS2B-NS3 protease. Utilizing a direct enzyme activity measurement method, reading the fluorescence intensity is used to characterize the relative potency of inhibitors as IC50.).
Chain of Nonstructural protein 3 (A0A024AXB9 whole entry): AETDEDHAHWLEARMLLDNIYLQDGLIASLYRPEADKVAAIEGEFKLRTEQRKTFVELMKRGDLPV
Parameters: species or system PRVABC59

Row | Compound | IC50
1 | c1ccc2sc(C3CCN(Cc4c[nH]c5ccccc45)CC3)nc2c1 | 9.89 µM
2 | NCc1cccc(NC(=O)c2cc(Cl)cc(C3CC3)c2)c1 | 8.27 µM
3 | Cc1oc(C(=O)Nc2cccc(CN)c2)cc1COc1ccccc1 | > 99.5 µM
4 | Cn1ccnc(N2CCC(NS(=O)(=O)c3ccc(Cl)cc3C(=O)O)CC2)c1=O | > 99.5 µM
5 | CCn1ccnc(N2CC[C@@H](CC(N)=O)C2)c1=O | > 99.5 µM
6 | CCOC(=O)Nc1cc(Cl)cc(C(=O)Nc2cccc(CN)c2)c1 | 3.2 µM
7 | FC(F)(F)c1ccccc1C1CCN(Cc2c[nH]c3ccccc23)CC1 | > 99.5 µM
8 | CNC(=O)[C@]1(Nc2ccc3c(c2)CNC3)C(=O)Nc2ccccc21 | > 99.5 µM
9 | O=C(O)c1cc(Cl)ccc1S(=O)(=O)Nc1ccc(-c2cccc(F)c2)cc1 | > 99.5 µM
10 | O=C(O)c1cccc(NC(=O)c2cc(Cl)cc3[nH]ncc23)c1 | > 99.5 µM
11 | NCc1cc(Cl)cc(C(=O)Nc2cccc(C3CCNCC3)c2)c1 | 25.8 µM
12 | Cc1nn(CCO)c(C(F)F)c1C(=O)Nc1cccc(CN)c1 | > 99.5 µM
13 | CN(C(=O)c1cc(Cl)cc2[nH]ncc12)c1ccc2c(c1)CNC2 | 80 µM
14 | NCc1cccc(NC(=O)Cc2ccc(OCc3ccccc3)cc2)c1 | > 99.5 µM
15 | Cc1nn(C)c(C)c1[C@H]1CCCN1C(=O)Nc1ccc2c(c1)CNC2 | > 25 µM
16 | Cc1c(C(=O)Nc2cc(C(=O)N3CC(CO)C3)ccn2)cc(C2CC2)n1C | > 25 µM
17 | CCOc1cccc(-c2ccc(S(=O)(=O)Nc3ccc(Cl)cc3C(=O)O)cc2)c1 | 14.7 µM and 13.8 µM
18 | O=C(Nc1ccc2c(c1)CNC2)c1ccc2nc(O)sc2c1 | > 25 µM
19 | C=CC[C@H](Nc1ccc(-c2nn[nH]n2)cc1)c1cc(Cl)cc(NC(=O)OCc2ccccc2)c1 | 11.3 µM
20 | O=C(N[C@@H](C(=O)Nc1cccnc1)c1ccc(OCc2ccccc2)cc1)OCc1ccccc1 | > 99.5 µM
21 | O=C(O)c1cc(Cl)c(Cl)cc1NS(=O)(=O)c1ccc(Oc2ccccc2Cl)cc1 | 9.06 µM
22 | CC(C)c1nccn1C[C@H]1CCCN1C(=O)Nc1ccc2c(c1)CNC2 | > 25 µM
23 | NCc1cccc(NC(=O)[C@H](NC(=O)OCc2ccccc2)c2ccc(OCc3ccccc3)cc2)c1 | 6.93 µM
24 | O=C(Nc1cc(-c2cccnc2)ccn1)c1cc(C2CC2)[nH]c(=O)c1 | > 25 µM
25 | NCc1cc(Br)cc([C@H]2C[C@@H]2c2cc(Cl)cc(NC(=O)OCc3ccccc3)c2)c1 | 11.6 µM
26 | O=C(Nc1ccc2c(c1)CNC2)c1n[nH]c2ccc(F)cc12 | 16.9 µM

Row | Compound | IC50
27 | NCc1cccc(NC(=O)[C@H](NC(=O)OCc2ccccc2)c2cccc(OCc3ccncc3)c2)c1 | > 99.5 µM
28 | Cc1nc2ccc(C(=O)Nc3ccc4c(c3)CNC4)cc2s1 | > 25 µM
29 | Cn1nc([C@H](C#N)Nc2cccc([C@H]3CCOC3)c2)cc1C1CC1 | > 25 µM
30 | O=C(Nc1cccnc1)c1cc(Cl)ccc1NS(=O)(=O)c1ccc(Oc2ccccc2Cl)cc1 | > 99.5 µM
31 | O=C(Nc1cc(Cl)cc(-c2ccc3cc(C(=O)O)[nH]c3c2)c1)OCc1ccccc1 | 11.8 µM
32 | CCn1cc(-c2ccc(CN(C)C)cc2)nc(N2CC[C@@H](CO)C2)c1=O | > 99.5 µM
33 | C[C@@H]1CCC[C@H](C(=O)Nc2cccc(CN)c2)O1 | > 99.5 µM
34 | O=c1[nH]c2cc(Cl)ccc2n1Cc1ccc(-c2nn[nH]n2)cc1 | > 99.5 µM
35 | Cc1ncc(COc2ccc([C@H](NC(=O)OCc3ccccc3)C(=O)Nc3cccc(CN)c3)cc2)cn1 | > 99.5 µM
36 | CC(C)CC(=O)N1CCC([C@H](NC(=O)OCc2ccccc2)C(=O)Nc2cccc(CN)c2)CC1 | > 99.5 µM
37 | NCc1ccc(NS(=O)(=O)c2ccc(Oc3ccccc3Cl)cc2)cc1Cl | > 99.5 µM
38 | O=C(NCCO)c1cc(Cl)ccc1NS(=O)(=O)c1ccc(Oc2ccccc2Cl)cc1 | > 99.5 µM
39 | Cc1cc(C(F)(F)F)nc(C(=O)Nc2cccc(CN)c2)n1 | > 99.5 µM
40 | N#Cc1ccccc1-c1ccc(S(=O)(=O)Nc2ccc(Cl)cc2C(=O)O)cc1 | 80 µM
41 | CCn1cc(-c2ccccc2)nc(N2CC[C@@H](CO)C2)c1=O | > 99.5 µM
42 | NCc1cc(NC(=O)c2cc(Cl)cc(NC(=O)OCc3ccccc3)c2)cc(C2=CC[C@H](C(=O)O)C2)c1 | 7.96 µM
43 | O=C(NCc1nnn[nH]1)c1cc(Cl)ccc1NS(=O)(=O)c1ccc(Oc2ccccc2Cl)cc1 | > 99.5 µM
44 | CC1(C)CCC(F)(F)C[C@H]1C(=O)Nc1cccc(CN)c1 | > 99.5 µM
45 | O=C(Nc1ccc2c(c1)CNC2)c1cc(Br)cc2[nH]ncc12 | 0.055 µM and 0.049 µM
46 | COC(=O)c1cc2scc(Br)c2[nH]1 | > 99.5 µM
47 | O=C1Cc2c(C(=O)Nc3ccc4c(c3)CNC4)ccnc2N1 | 22.8 µM
48 | O=C(Nc1cccc([C@@H]2C[C@H]2C(=O)O)c1)c1cc(Cl)cc2[nH]ncc12 | > 99.5 µM
49 | CNC(=O)[C@H](Nc1ccc2c(c1)CNC2)c1cccc2[nH]ncc12 | 3.83 µM
50 | NCc1ccc(C(=O)O)c(NC(=O)c2cc(Cl)cc(NC(=O)OCc3ccccc3)c2)c1 | > 99.5 µM
51 | O=C(Nc1cc([C@H]2CCOC2)ccn1)c1ccc2ncsc2c1 | > 25 µM
52 | CCn1c(=O)c(N2C[C@H]3CCS(=O)(=O)[C@H]3C2)nc2ccccc21 | > 99.5 µM

Row | Compound | IC50
53 | CNC(=O)[C@H](Nc1cccc(-c2nn[nH]n2)c1)c1cc(Cl)cc(NC(=O)OCc2ccccc2)c1 | > 99.5 µM
54 | Cc1c(C(=O)Nc2cc(C(=O)N3CC[C@H](C(N)=O)C3)ccn2)cc(C2CC2)n1C | > 25 µM
55 | NCc1cccc(CNC(=O)c2cc(Cl)cc(NC(=O)OCc3ccccc3)c2)c1 | 51.3 µM
56 | N[C@H]1CCCc2ccc(NC(=O)c3cc(Cl)cc(NC(=O)OCc4ccccc4)c3)cc21 | 12.1 µM
57 | CCn1c(=O)c(N2CC[C@H](CO)C2)nc2ccc(C(=O)NCc3ccccc3)cc21 | > 99.5 µM
58 | Cc1nccn1-c1ccc(NS(=O)(=O)c2ccc(Cl)cc2C(=O)O)cc1F | > 99.5 µM
59 | Cn1ccc(Nc2ccc(S(=O)(=O)Nc3ccc(Cl)cc3C(=O)O)cn2)n1 | > 99.5 µM
60 | CN(C(=O)[C@@H](NC(=O)OCc1ccccc1)c1ccc(OCc2ccccc2)cc1)c1cccc(CN)c1 | > 99.5 µM
61 | O=C(Nc1cc(Cl)cc(C(=O)Nc2cccc(-n3nn[nH]c3=O)c2)c1)OCc1ccccc1 | 30.8 µM
62 | O=C(Nc1cc(Cl)cc(C(=O)N2CC[C@H](C(=O)O)C2)c1)OCc1ccccc1 | > 99.5 µM
63 | NCc1cccc(NC(=O)[C@H]2CCOC3(CCC3)C2)c1 | > 99.5 µM
64 | O=Cc1ccc(N2CCC(C(=O)Nc3ccc(Br)cc3O)CC2)cc1 | 67.6 µM
65 | c1cc(Cc2noc(CCc3cscn3)n2)no1 | > 99.5 µM
66 | N#C[C@H](Nc1ccc2c(c1)CNC2)c1cccc2ncccc12 | 7.26 µM
67 | NCc1cccc([C@@H]2C[C@H]2c2cc(Cl)cc(NC(=O)OCc3ccccc3)c2)c1 | 18.1 µM and 11.3 µM
68 | CC(C)S(=O)(=O)N1CCC([C@@H](NC(=O)OCc2ccccc2)C(=O)Nc2cccc(CN)c2)CC1 | > 99.5 µM
69 | O=C(N[C@@H](C(=O)Nc1ccc2c(n1)CNC2)c1ccc(OCc2ccccc2)cc1)OCc1ccccc1 | > 99.5 µM
70 | CN1CCc2nc(NC(=O)c3cc(Cl)cc(NC(=O)OCc4ccccc4)c3)sc2C1 | > 99.5 µM
71 | O=C(Nc1cc(Cl)cc(C(=O)NCC[C@H]2C[C@@H]2C(=O)O)c1)OCc1ccccc1 | > 99.5 µM
72 | C=CC[C@H](Nc1cccc(C(=O)O)c1)c1cc(Cl)cc2[nH]ncc12 | > 99.5 µM
73 | CNC(=O)[C@]1(Nc2ccc3c(c2)CNC3)CCc2ccccc21 | > 25 µM
74 | NCc1cccc(NC(=O)[C@]2(NC(=O)OCc3ccccc3)COc3cc(Br)ccc32)c1 | > 99.5 µM
75 | O=C(O)c1cc(Cl)ccc1NS(=O)(=O)c1ccc(Br)cc1 | > 99.5 µM
76 | O=C(O)c1cc(Cl)ccc1S(=O)(=O)NC1CCN(c2nc(C3CC3)cc(C(F)(F)F)n2)CC1 | 46.6 µM
77 | CCn1nc(C)c(CN(C)Cc2ccc3c(c2)CCNCC3)c1C | > 99.5 µM
78 | NCc1cccc(NC(=O)c2cc(C(F)(F)F)cnc2N2CCOCC2)c1 | > 99.5 µM

Row | Compound | IC50
79 | NCCNC(=O)c1cc(Cl)ccc1NS(=O)(=O)c1ccc(Oc2ccccc2Cl)cc1 | > 99.5 µM
80 | NCc1cccc(NC(=O)C[C@H](NC(=O)OCc2ccccc2)c2ccc(C(F)(F)F)cc2)c1 | 58.3 µM
81 | Cc1n[nH]c2nc(Cl)cc(C(=O)Nc3ccc4c(c3)CNC4)c12 | 3.71 µM
82 | Cc1c(C(=O)Nc2cc(C3CCOCC3)ccc2F)cc(C2CC2)n1C | > 25 µM
83 | CCOCCNC(=O)c1cc(Cl)ccc1NS(=O)(=O)c1ccc(Oc2ccccc2Cl)cc1 | 90.4 µM and > 99.5 µM
84 | O=C(NCCC1CC1)[C@H](Nc1ccc2c(c1)CNC2)c1cc(Cl)cc(C2CC2)c1 | 0.074 µM and 0.049 µM
85 | COc1cc(Cc2ccnc(N3CCNCC3)c2)nc(N2CCNCC2)n1 | > 99.5 µM
86 | CCOC(=O)[C@H](Nc1ccc2c(c1)CNC2)c1cc(Cl)cc(C2CC2)c1 | 0.064 µM and 0.087 µM
87 | c1ccc(-c2c[nH]nc2CN2CCC(c3cscn3)CC2)cc1 | > 99.5 µM
88 | Cn1ncnc1Sc1nc(C2CCCC2)ns1 | > 99.5 µM
89 | CCCC[C@@H](NC(=O)OC(C)(C)C)C(=O)N[C@@H](C(=O)NCc1ccc(CN)cc1)c1ccc(OCc2ccccc2)cc1 | 25.6 µM
90 | Cn1nc(C(=O)Nc2cccc(CN)c2)c2c1CCS(=O)(=O)C2 | > 99.5 µM
91 | CC(C)C[C@H](NC(=O)c1cc(Cl)cc(NC(=O)OCc2ccccc2)c1)c1nnn[nH]1 | > 99.5 µM
92 | NCc1ccccc1C(=O)Nc1ccc2c(c1)C(=O)OC2 | > 25 µM
93 | Cn1ncc(C(=O)Nc2cc(CCCN)ccn2)c1O | > 25 µM
94 | Cc1nnc(S(=O)(=O)N2CCC([C@H](NC(=O)OCc3ccccc3)C(=O)Nc3cccc(CN)c3)CC2)s1 | > 99.5 µM
95 | O=C(O)C[C@H]1CN(c2ccc(-c3cc(Cl)cc(NC(=O)OCc4ccccc4)c3)cn2)CCO1 | > 99.5 µM
96 | NCc1cccc(NC(=O)[C@H](NC(=O)OCc2ccccc2)c2cccc(-c3cncc(F)c3)c2)c1 | > 99.5 µM
97 | Cc1c(C(=O)Nc2cc(CCCN)ccn2)cc(C2CC2)n1C | 39.9 µM
98 | NCc1cccc(NC(=O)[C@H]2CCCN(C(=O)CC3CC3)C2)c1 | > 99.5 µM
99 | O=C(Nc1ccc2c(c1)CNC2)C1(c2ccc(Cl)cc2)CCCC1 | > 25 µM
100 | O=C(Nc1ccc2c(c1)CNC2)c1ccccn1 | 57.3 µM
101 | O=C(Nc1cc(Cl)cc(C(=O)Nc2ccnc(OC3CNC3)c2)c1)OCc1ccccc1 | 66.1 µM
102 | CCc1cc(C(=O)Nc2cccc(-n3nn[nH]c3=O)c2)sc1-c1ccc(Cl)cc1 | 24.7 µM
103 | Cn1ccc(-c2cc(F)cc(C(=O)Nc3ccc4c(c3)CNC4)c2)cc1=O | 0.104 µM
104 | Cc1ncc(COc2ccc([C@@H](NC(=O)OCc3ccccc3)C(=O)Nc3cccc(CN)c3)cc2)o1 | > 99.5 µM

From ChEMBL document CHEMBL5604062, “ASAP - ZIKV NS2B-NS3 protease fluorescence dose response” (2024)
